Tests used:
[1] = biological target: T1, Tyrosine-protein kinase JAK3 (Homo sapiens, UniProt P52333); assay: JAK3 Kinase Inhibitory Activity Assay
T1 sequence (P52333 whole entry): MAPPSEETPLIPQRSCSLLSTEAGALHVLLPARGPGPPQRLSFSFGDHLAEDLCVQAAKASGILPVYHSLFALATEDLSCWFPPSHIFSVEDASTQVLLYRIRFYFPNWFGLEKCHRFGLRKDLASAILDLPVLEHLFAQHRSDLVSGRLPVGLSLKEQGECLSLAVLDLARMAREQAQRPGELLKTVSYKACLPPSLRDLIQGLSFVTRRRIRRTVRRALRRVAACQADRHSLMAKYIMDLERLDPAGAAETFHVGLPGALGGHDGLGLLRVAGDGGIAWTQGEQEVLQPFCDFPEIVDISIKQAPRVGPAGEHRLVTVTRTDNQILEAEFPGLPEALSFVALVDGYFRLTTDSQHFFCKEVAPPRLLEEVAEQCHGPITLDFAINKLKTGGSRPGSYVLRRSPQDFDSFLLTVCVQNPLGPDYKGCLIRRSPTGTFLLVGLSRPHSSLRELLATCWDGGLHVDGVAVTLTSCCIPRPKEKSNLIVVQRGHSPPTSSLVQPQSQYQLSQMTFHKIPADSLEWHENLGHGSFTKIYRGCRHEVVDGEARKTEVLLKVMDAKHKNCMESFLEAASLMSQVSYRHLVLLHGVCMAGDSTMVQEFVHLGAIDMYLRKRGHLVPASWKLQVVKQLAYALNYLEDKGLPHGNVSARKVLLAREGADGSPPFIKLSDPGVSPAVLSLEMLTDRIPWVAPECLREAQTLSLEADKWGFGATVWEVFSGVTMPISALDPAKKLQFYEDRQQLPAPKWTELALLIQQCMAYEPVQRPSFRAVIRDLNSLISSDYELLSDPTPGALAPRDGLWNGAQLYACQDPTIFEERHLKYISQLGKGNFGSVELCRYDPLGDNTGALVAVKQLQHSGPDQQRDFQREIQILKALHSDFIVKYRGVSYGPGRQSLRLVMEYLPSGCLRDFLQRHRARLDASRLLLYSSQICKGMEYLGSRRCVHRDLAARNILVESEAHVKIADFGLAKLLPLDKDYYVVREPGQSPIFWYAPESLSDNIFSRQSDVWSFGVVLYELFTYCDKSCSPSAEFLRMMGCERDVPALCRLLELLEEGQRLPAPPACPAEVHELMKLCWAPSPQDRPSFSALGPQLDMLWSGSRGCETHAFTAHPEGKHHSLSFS

[2] = biological target: Tyrosine-protein kinase JAK2 (Homo sapiens, UniProt O60674); assay: JAK2 Kinase Inhibitory Activity Assay
Sequence of Tyrosine-protein kinase JAK2 (O60674 whole entry): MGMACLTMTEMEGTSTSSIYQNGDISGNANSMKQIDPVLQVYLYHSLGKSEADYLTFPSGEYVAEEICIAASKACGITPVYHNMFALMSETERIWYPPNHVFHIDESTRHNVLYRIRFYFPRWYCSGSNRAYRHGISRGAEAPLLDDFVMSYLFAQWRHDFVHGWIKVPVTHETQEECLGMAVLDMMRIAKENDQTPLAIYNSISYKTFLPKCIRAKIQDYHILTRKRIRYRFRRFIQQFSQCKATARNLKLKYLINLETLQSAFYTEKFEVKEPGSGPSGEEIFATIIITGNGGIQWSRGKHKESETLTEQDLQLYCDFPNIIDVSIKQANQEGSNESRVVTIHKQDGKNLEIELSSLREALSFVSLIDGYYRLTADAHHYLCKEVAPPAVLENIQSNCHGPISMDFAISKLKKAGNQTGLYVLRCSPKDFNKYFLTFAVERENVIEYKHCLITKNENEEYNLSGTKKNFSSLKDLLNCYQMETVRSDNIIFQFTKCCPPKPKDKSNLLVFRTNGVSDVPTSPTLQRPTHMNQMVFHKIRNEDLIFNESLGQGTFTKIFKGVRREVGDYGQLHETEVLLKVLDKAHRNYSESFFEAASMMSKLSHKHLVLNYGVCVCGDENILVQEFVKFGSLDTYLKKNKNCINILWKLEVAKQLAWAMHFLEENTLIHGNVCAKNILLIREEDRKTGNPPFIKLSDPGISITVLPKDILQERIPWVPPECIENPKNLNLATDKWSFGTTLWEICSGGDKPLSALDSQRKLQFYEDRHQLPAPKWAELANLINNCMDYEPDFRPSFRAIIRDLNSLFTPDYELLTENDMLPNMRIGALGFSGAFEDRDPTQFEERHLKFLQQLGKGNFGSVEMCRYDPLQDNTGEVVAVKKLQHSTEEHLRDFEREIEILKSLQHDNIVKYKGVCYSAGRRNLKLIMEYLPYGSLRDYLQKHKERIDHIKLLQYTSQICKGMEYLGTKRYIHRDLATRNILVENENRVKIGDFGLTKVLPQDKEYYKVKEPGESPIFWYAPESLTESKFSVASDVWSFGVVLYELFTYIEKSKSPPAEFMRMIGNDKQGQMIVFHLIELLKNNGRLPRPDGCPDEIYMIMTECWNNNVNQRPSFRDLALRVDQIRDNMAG

## N#CCC1(n2cc(-c3ncnc4[nH]ccc34)cn2)CCC(F)(F)CC1 [US20250136608, Compound 1]
[1]
  IC50: 0.241 µM
[2]
  IC50: 0.0028 µM
